Results from patent US9481669B2, “Pladienolide pyridine compounds and methods of use” (Eisai R&D Management Co., Ltd., priority 2014, dated 2016).

Key:
[1] = test system: WiDr cells (colon cancer cells, wildtype SF3B1); test: Cell viability assay (CellTiter-Glo, 72 hr), WiDr; type: cell-based; conditions: Homo sapiens
Method: (§1) Cells (WiDr and Panc05.04 obtained from ATCC) were seeded in 96-well plates, with 2000 cells/100 μL/well, and incubated overnight. Spent media was removed, and fresh media containing 9 different concentrations of compound (100 μL/well) were added, with DMSO concentration from compound stock solution adjusted to be 0.1%. Each compound treatment was done in duplicate or triplicate at each concentration.
(§2) Another plate with cells seeded was dedicated as a time zero (Tz) plate, to which was added 0.1% DMSO in media (100 μL/well) followed by CellTiter-Glo® reagent (Promega Corporation, Madison, Wis.) (50 μL/well) for ATP measurement as a surrogate of cell viability. Average value from measurement of multiple wells of this plate is used as Tz.
(§3) Compound-treated plates were incubated for 72 hr at 37° C. Then, CellTiter-Glo® reagent (50 μL/well) was added and ATP was measured. Average value from measurement of the duplicate or triplicate compound-treated wells is used as Ti, and seeded plates with medium having 0.1% DMSO without compound is used as control growth (C).
(§4) Percentage growth inhibition/Percentage viability was calculated as: [(Ti−Tz)/(C−Tz)]×100 for concentrations for which Ti>/=Tz [(Ti−Tz)/Tz]×100 for concentrations for which Ti<Tz. *time zero (Tz), control growth (C), and test growth in the presence of compound (Ti) Percentage growth inhibition/Percentage viability are plotted versus compound concentration to determine Emax.
(§5) Growth inhibition of 50% (GI50) was calculated from [(Ti−Tz)/(C−Tz)]×100=50, which is the drug concentration resulting in a 50% reduction in the net increase of ATP in control growth (C) during the compound treatment.
(§6) The counter-screening of compounds in this viability assay with a “resistant” WiDr-R cell line may indicate whether these compounds have off-target effect(s).

[2] = test system: Panc 05.04 cells (mt SF3B1; Q699H and K700E mutations in SF3B1); test: Cell viability assay (CellTiter-Glo, 72 hr), Panc 05.04; type: cell-based; conditions: for GI50 / Emax: Panc 05.04, 72 hr; for Emax: negative value indicates cellular lethality
Method: as §1, §2, §3, §4, §5
Emax refers to the maximum achievable response to a compound in a tested dose range, with a negative value indicating cellular lethality. A larger negative Emax value indicates greater cellular lethality for a particular compound.

[3] = test system: splicing of Ad2 pre-mRNA in HeLa nuclear extract; test: In vitro splicing (IVS) biochemical assay; conditions: 30° C.
Method: Biotin-labeled pre-mRNA of an adenovirus type 2 construct with a deletion of intervening sequence (Ad2) (Berg, M. G., et al. 2012 Mol. Cell Bio., 32(7):1271-83) was prepared by in vitro transcription. The Ad2 construct containing Exon 1 (41 nucleotides), Intron (231 nucleotides), and Exon 2 (72 nucleotides) was generated by gene synthesis and cloned into the EcoRI and XbaI sites of pGEM®-3Z vector (Promega) by Genewiz® (South Plainfield, N.J.). The plasmid was then linearized by XbaI digestion and purified. In vitro transcription and purification of transcribed pre-mRNA were performed using the MEGAscript® T7 transcription kit (Invitrogen™, Life Technologies™, Grand Island, N.Y.) and MEGAclear™ transcription clean-up kit (Invitrogen™, Life Technologies™, Grand Island, N.Y.), respectively, following the manufacturer's instructions. The ratio of biotin-16-UTP (Roche Diagnostics Corporation, Indianapolis, Ind.) to cold UTP was 1:13 to incorporate approximately two biotin molecules per spliced Ad2 mRNA.
In vitro splicing assay was performed at 30° C. in 25 μL reaction mixtures containing 95 μg HeLa nuclear extract (Promega Corporation, Madison, Wis.), 47 nM Ad2 pre-mRNA, 25 U RNasin RNase inhibitor (Promega Corporation, Madison, Wis.), 1×SP buffer (0.5 mM ATP, 20 mM creatine phosphate, 1.6 mM MgCl2), and compounds in DMSO (with 1% final concentration of DMSO). After […] of incubation, the reaction was stopped by addition of 18 μL of 5M NaCl, and the mixtures were incubated with 10 μL of M-280 streptavidin-coated magnetic beads (Invitrogen™, Life Technologies™, Grand Island, N.Y.) for 30 min at room temperature to capture Ad2 pre- and spliced mRNA. The beads were washed twice with 100 uL buffer containing 10 mM Tris pH=7.5, 1 mM EDTA and 2M NaCl, and then incubated in RNA gel loading buffer containing 95% formamide at 70° C. for 10 min to elute the RNAs. Ad2 RNAs were resolved by 6% TBE-UREA gel, transferred to a nylon membrane, UV cross-linked, and probed with an IRDye® labeled streptavidin (LI-COR, Lincoln, Nebr.). The amount of spliced RNA was quantified by measuring the band fluorescent intensity using LI-COR Image Studio software.
The in vitro splicing (IVS) assay described above is a biochemical assay that monitors inhibition of the splicing of an exemplary pre-mRNA into an mRNA.

[4] = test system: WiDr-R cells (colon cancer cells, SF3B1 R1074H mutation); test: Cell viability assay (CellTiter-Glo, 72 hr), WiDr-R counter-screen; type: cell-based
Method: as §1, §2, §3, §4, §5, §6

Row | Structure (SMILES) | GI50 [1] [nM] | GI50 [2] [nM] | Emax [2] [%] | IC50 [3] [nM] | GI50 [4] [nM] | cellular lethality (Emax comparison) ([2]; Panc 05.04 cells)
1 | C/C(=C\C=C\[C@@H](C)c1ccccn1)[C@H]1OC(=O)C[C@H](O)CC[C@@](C)(O)[C@@H](OC(=O)N2CCC(N3CCCCC3)CC2)/C=C/[C@@H]1C [Compound 4, (2S,3 S,6S,7R,10R,E)-7,10-dihydroxy-3,7-dimethyl-12-oxo-2-((R,2E,4E)-6-(pyridin-2-yl)hepta-2,4-dien-2-yl)oxacyclododec-4-en-6-yl[1,4′-bipiperidine]-1′-carboxylate] | 13 | 11.8 | -86.2 | 89 | > 1000 | –
2 | C/C(=C\C=C\[C@@H](C)c1ccccn1)[C@H]1OC(=O)C[C@H](O)CC[C@@](C)(O)[C@@H](OC(=O)N2CCC(N3CCCCCC3)CC2)/C=C/[C@@H]1C [Compound 3, (2S,3S,6S,7R,10R,E)-7,10-dihydroxy-3,7-dimethyl-12-oxo-2-((R,2E,4E)-6-(pyridin-2-yl)hepta-2,4-dien-2-yl)oxacyclododec-4-en-6-yl 4-(azepan-1-yl)piperidine-1-carboxylate] | 26.3 | 20.8 | -90.8 | 770 | > 1000 | –
3 | C/C(=C\C=C\[C@@H](C)c1ccccn1)[C@H]1OC(=O)C[C@H](O)CC[C@@](C)(O)[C@@H](OC(=O)N2CCN(C3CCCCCC3)CC2)/C=C/[C@@H]1C [Compound 1, (2S,3S,6S,7R,10R,E)-7,10-dihydroxy-3,7-dimethyl-12-oxo-2-((R,2E,4E)-6-(pyridin-2-yl)hepta-2,4-dien-2-yl)oxacyclododec-4-en-6-yl 4-cycloheptylpiperazine-1-carboxylate] | 15.8 | 19.5 | -86.8 | 188 | > 1000 | greater cellular lethality than Compound 2
4 | C/C(=C\C=C\[C@@H](C)c1ccccn1)[C@H]1OC(=O)C[C@H](O)CC[C@@](C)(O)[C@@H](OC(=O)N2CCN(C)CC2)/C=C/[C@@H]1C [Compound 2, (2S,3 S,6S,7R,10R,E)-7,10-dihydroxy-3,7-dimethyl-12-oxo-2-((R,2E,4E)-6-(pyridin-2-yl)hepta-2,4-dien-2-yl)oxacyclododec-4-en-6-yl 4-methylpiperazine-1-carboxylate] | 31.8 | 32.7 | -66.1 | 1330 | > 1000 | –
